Results reported in US8906953B2, “Pyrrolidine substitute flavones for the treatment of inflammatory disorders” (Piramal Enterprises Limited, priority 2010, dated 2014).

Experiments:
IL-8 = assay: Spontaneous IL-8 release from synovial cells of RA patients; type: cell-based; conditions: Homo sapiens, Synovial cell, freshly isolated synovial cells from RA patients, 16 hours
Protocol: Cytokine production in synovial cells obtained from rheumatoid arthritis patients undergoing knee replacement surgery, was measured as per the method described in reference, Lancet, 1989, 29, 244-247, the disclosure of which is incorporated herein by reference for the teaching of the assay. The synovial membrane tissue was digested by incubating at 37° C. for 3 hours in an atmosphere of 5% CO2, in Roswell Park Memorial Institute (RPMI) medium containing penicillin-G (100 U/mL), streptomycin (100 μg/mL), amphotericin B (50 ng/mL) (GIBCO), 1.33 mg/mL collagenase Type I (Worthington Biochemical Corporation, New Jersey, USA), 0.5 μg/mL DNAse Type I (SIGMA) and 8.33 U/mL heparin (Biological E. Limited, India). The digested tissue was then filtered through a membrane (mesh size 70 micron) (SIGMA), the cells were washed 3 times and suspended in complete medium (RPMI supplemented with 5% FCS and 5% human serum). The cell concentration was adjusted to 1×10^6 cells/mL. The viability as determined by trypan blue dye exclusion was uniform Ly≧98%. The cell suspension (100 μL) was added to the wells of a 96-well culture plate. Following cell plating, 100 μL of the culture medium and 1 μL of various concentrations of the compound of example 3 (final concentration 0.001, 0.003, 0.01, 0.03, 0.1, 0.3, 1 and 3 μM) dissolved in DMSO (dimethylsulfoxide, Sigma, Mo., USA) were added to the cells. […]

VCAM-1 = assay: TNF-α induced cell surface expression of VCAM-1 on HUVECs; type: cell-based; conditions: Homo sapiens, HUVEC; TNF-α (1 ng/mL) stimulated HUVECs, 6 hours, n=2
Protocol: (§1) The assay was designed as in reference, Transplantation, 1997, 63(5), 759-764, the disclosure of which is incorporated herein by reference for the teaching of the assay.
(§2) Human umbilical vein endothelial cells (HUVECs) were obtained from Cascade Biologics (Oregon-USA). Cells were cultured in M-200 medium (Cascade Biologics) supplemented with low serum growth supplements (LSGS) (Cascade Biologics), penicillin-G (100 U/mL), streptomycin (100 μg/mL) and amphotericin B (50 ng/mL) (GIBCO). […] After TNF-α stimulation (1 ng/mL) (R&D Systems (Minneapolis, Minn.)) for 4 hours at 37° C. in an atmosphere of 5% CO2, supernatants were harvested and assayed for the expression of ICAM-1 (intercellular cell adhesion molecules), whereas the expressions of VCAM-1 (vascular cell adhesion molecules) and E-selectin were evaluated after 6 hours of stimulation. […] To quantitatively measure the amount of cell surface expressions of ICAM-1, VCAM-1 and E-selectin, ELISA assay was performed using anti-ICAM-1 (clone BBIG-I1), anti-VCAM-1 (clone BBIG-V1), anti-E-selectin (clone BBIG-E4) antibodies, isotype control mouse IgG1 (clone 11711.11) and the secondary antibody (anti-mouse IgG-HRP antibody) which were procured from R&D Systems (Minneapolis, Minn., USA). […]

E-selectin = assay: TNF-α induced cell surface expression of E-selectin on HUVECs; type: cell-based; conditions: Homo sapiens, HUVEC; TNF-α (1 ng/mL) stimulated HUVECs, 6 hours, n=2
Protocol: as §1, §2

PDE4 = PDE4 inhibition, cAMP fluorescence assay in salbutamol-stimulated U937 cells; type: cell-based, human; conditions: for Relative Fluorescence (RF): U937 cells, salbutamol 1 μM
Protocol: Culture medium was changed every 2-3 days and always 24 hours before harvest. RPMI medium, FBS and Salbutamol were purchased from Sigma-Aldrich (USA). Rolipram was synthesized in the Medicinal Chemistry Department, Piramal Life Sciences Limited.
Rolipram was used as a standard (0.3, 1 and 3 μM). […] Fluorescence measurements were taken with Polarstar Optima (BMG Labtech-Germany).
Relative fluorescence was calculated using the following formula where: RF=Relative Fluorescence, Fo=fluorescent intensity of the blank or buffer control, F=fluorescence of cAMP or sample: RF=(Fo−F)/Fo
A standard curve was plotted using the RF values of the given standards and the values of cAMP corresponding to the test compounds were determined using the standard plot.

CN1CC[C@@H](c2c(O)cc(O)c3c(=O)cc(-c4ccc(C(F)(F)F)cc4Cl)oc23)[C@@H]1CO.Cl [Compound of example 3, (+)-trans-2-(2-Chloro-4-trifluoromethyl-phenyl)-5,7-dihydroxy-8-(2-hydroxymethyl-1-methyl-pyrrolidin-3-yl)-chromen-4-one hydrochloride]
IC50 (IL-8): 3500 nM
IC50 (VCAM-1): 280 nM
IC50 (E-selectin): 650 nM
PDE4 inhibition (conclusion) (PDE4; U937 cells, 1, 3 and 10 μM): not a PDE4 inhibitor
Relative Fluorescence (RF) (PDE4; concentration 1 μM): 0.71
Relative Fluorescence (RF) (PDE4; concentration 3 μM): 0.95
Relative Fluorescence (RF) (PDE4; concentration 10 μM): 0.95
